From patent US20240271096A1, “EFFICIENT DIFFERENTIATION OF SECOND HEART FIELD CARDIAC PROGENITOR CELLS AND RIGHT VENTRICLE CARDIOMYOCYTES FROM HUMAN PLURIPOTENT STEM CELLS” (Wisconsin Alumni Research Foundation, priority 2023, published 2024)

Test system: human induced pluripotent stem cell-derived cardiac progenitor cells
Test: Quantitative PCR of heart field and cardiac markers in differentiating hiPSCs (day 0 to day 7)
Assay type: cell-based
Settings: B-27 containing insulin day 0 to day 1; qPCR day 7; vs control cells
Procedure: For LV-cardiomyocyte differentiation, cardiac differentiation was performed according to the protocol published by (Lian et al., 2012, Proc Natl Acad Sci USA 109:[…]-57). Cells were dissociated with StemPro Accutase Cell Dissociation Reagent at 37° C. for 5 minutes. HESCs were seeded on Matrigel-coated 24-well plates (Corning) in StemFlex Medium supplemented with 10 μmol/[…] were seeded on iMatrix-511-coated 12-well plates (Corning) in StemFit A[…] supplemented with 10 μmol/[…] at seeding densities of 1×10^5 cells/cm^2 for hESCs and 1.25-2.5×10^4 cells/cm^2 for hiPSCs. Cells were cultured for 4 days until the start of differentiation (day 0). On day 0, the medium was changed to RPMI 1640 Medium (Thermo Fisher Scientific) supplemented with B-27 Supplement minus insulin (Thermo Fisher Scientific) (RPMI/B27-insulin) or B-27 Supplement with insulin (Thermo Fisher Scientific), and 12 μmol/L CHIR 99021 (SelleckChem, Houston, TX, United States), and the cells incubated in this medium for 24 h (day 1). On day 1, the medium was changed to RPMI/B27-insulin. […] PowerUpTM SYBR Green Master Mix (Thermo Fisher Scientific) and QuantStudio 1 (Thermo Fisher Scientific) were used for quantitative PCR (q-PCR), wherein q-PCR data were processed using the ΔΔCT method. […] Data were analyzed with the web-based tool of GeneGlobe Data Analysis Center (Qiagen).

Substance: insulin
- expression levels of FHF markers (TBX5 and HCN4): lower expression levels
- mRNA expression levels of SHF markers (ISL1 and CXCR4): higher mRNA expression levels
